This note sets out measurements from the OligoGym collection.

Several values for one entry are separate records, joined by “and”; a condition that tells them apart may be missing. Equal values may be shown once. After the bases stand the sugars from the 5' end (letter, count) and the backbone: PS all phosphorothioate, else s phosphorothioate and o phosphodiester by linkage. Methylation of C is not given here. e = 2'-O-(2-methoxyethyl) (MOE); k = constrained ethyl (cEt); d = 2'-deoxy (DNA); m = 2'-O-methyl

For this data set, the target named is HSD17B13. As to conditions: ASO, HepaRG.

For “TTGAGATAAAGCTGCC (sugars kkdddddddddkekek, PS)”, where the note is “1 µM”, the target mRNA inhibition turned out to be 2%.

As to ATAGGACATGGAGACA (sugars k3 d10 k3, PS), the target mRNA inhibition reads like this: (0.02 µM) 14%; (0.078 µM) 18%; (0.313 µM) 48%; (1 µM) 82%; (1.25 µM) 74%; (5 µM) 79%.

Sequence GATACTATTCTCCAAC (sugars k3 d10 k3, PS) returned a target mRNA inhibition (1 µM) of 44%.

CATGAAGATTAGTTAA (sugars k3 d10 k3, PS) registered a target mRNA inhibition (1 µM) of 11%.

Turning to CACTGGATGGATTTCT (sugars k3 d10 k3, PS), the target mRNA inhibition (1 µM) amounted to 72%.

Consider CAGTCCTTGTGTAGTC (sugars k3 d10 k3, PS), for which the target mRNA inhibition (0.02 µM) worked out at 18%; the target mRNA inhibition (0.078 µM) was found to be 21%; the target mRNA inhibition (0.313 µM) is 49%; the target mRNA inhibition (1 µM) came to 70%; the target mRNA inhibition (1.25 µM) turned out to be 79%; the target mRNA inhibition (5 µM) was determined as 95%.

In turn, CAATTTATCATACCAC (sugars k3 d10 k3, PS) yielded a target mRNA inhibition (1 µM) of 37%.

The sequence TTTAGAATACGCTGAG (sugars k3 d10 k3, PS) gave a target mRNA inhibition (1 µM) of 44%.

Under “1 µM”, TAGGATGATGTTCATG (sugars k3 d10 k3, PS) showed a target mRNA inhibition of 72%.

In the case of GGTAACGGTGATCAAA (sugars k3 d10 k3, PS), for the setting “1 µM”, the target mRNA inhibition came to 51%.

The sequence TGAGGTAAGGAATCCC (sugars k3 d10 k3, PS) showed a target mRNA inhibition (1 µM) of 2%.

As to “CTTGATGTAGTGGGAG (sugars k3 d9 k3 e1, PS)”, the target mRNA inhibition (1 µM) was determined as 62%.

As to TGATTCGAAACTATTC (sugars k3 d10 k3, PS), the target mRNA inhibition (1 µM) worked out at 29%.

The sequence TAGGATTAATTCCCTT (sugars k3 d10 k3, PS) registered a target mRNA inhibition (1 µM) of 0%.

As to ATCCCACAGAACCAAT (sugars k3 d10 k3, PS), the target mRNA inhibition (1 µM) worked out at 34%.

ATGGTAAGCCCCATGC (sugars k3 d10 k3, PS): under “1 µM”, the target mRNA inhibition was found to be 22%.

Regarding “TTAAGATACCCAGGTT (sugars k3 d1 m1 d8 k3, PS)”, the target mRNA inhibition (1 µM) worked out at 30%.

Turning to GACTAAGGAGCTAGAT (sugars k3 d10 k3, PS), the target mRNA inhibition (1 µM) worked out at 25%.

On to GATAGTCCATGCAAAA (sugars k3 d10 k3, PS), for which the target mRNA inhibition (1 µM) was determined as 64%.

For the sequence GTTCAACTGAACCTCT (sugars k3 d10 k3, PS), under “1 µM”, the target mRNA inhibition was 55%.

AGACAGTTGAGTAGTG (sugars k3 d10 k3, PS) yielded a target mRNA inhibition (1 µM) of 63%.

ATTTTTAATACGACTT (sugars k3 d10 k3, PS) registered a target mRNA inhibition (1 µM) of 35%.

The sequence CGATAGATCTCTTCTC (sugars k3 d10 k3, PS) displayed a target mRNA inhibition (1 µM) of 15%.

With “GCTTTTGTCCACCTTT (sugars kkdddddddddkekek, PS)”, the target mRNA inhibition runs as follows: (0.02 µM) 28%; (0.078 µM) 25%; (0.313 µM) 45%; (1 µM) 75%; (1.25 µM) 81%; (5 µM) 87%.

In the case of TTCTATTAGTTGGCCT (sugars k3 d10 k3, PS), the target mRNA inhibition (1 µM) was 28%.

TAAACATCTCTGGGAC (sugars k3 d10 k3, PS) displayed a target mRNA inhibition (1 µM) of 51%.

Regarding TACAGGCCATAATCTT (sugars k3 d10 k3, PS), for the setting “1 µM”, the target mRNA inhibition was 16%.

For the sequence “GTTTUGGGCTAATGAA (sugars k3 d1 m1 d8 k3, PS)”, the target mRNA inhibition (1 µM) worked out at 30%.

Sequence “GTCTAAACATCTCTGG (sugars k3 d9 k3 e1, PS)” came in with a target mRNA inhibition (1 µM) of 49%.

ACTACATGACCTGGGT (sugars k3 d10 k3, PS) had a target mRNA inhibition (1 µM) of 54%.

“TTGAATAGCAAGCCAA (sugars k3 d9 k3 e1, PS)”: the target mRNA inhibition (1 µM) was 33%.

CTTACGACAGGTCATC (sugars k3 d10 k3, PS) showed a target mRNA inhibition (1 µM) of 39%.

Consider AGTAACTTTATTAACG (sugars k3 d10 k3, PS), for which the target mRNA inhibition (1 µM) worked out at 12%.

Sequence “TCTAAGTTAGCCCCCA (sugars k3 d1 m1 d8 k3, PS)” gave a target mRNA inhibition (1 µM) of 7%.

As to GTCCTTGTGTAGTCCT (sugars k3 d10 k3, PS), the target mRNA inhibition (1 µM) was 62%.

Take CTAGATACTCAATTTA (sugars k3 d10 k3, PS): the target mRNA inhibition (1 µM) stood at 30%.

GAAGAAGTGCTTTTGT (sugars k3 d10 k3, PS) yielded a target mRNA inhibition (1 µM) of 50%.

Consider TTCATAGTGGACTTCA (sugars k3 d10 k3, PS), for which the target mRNA inhibition (1 µM) is 51%.

Consider “CATAACTTCATAGTGG (sugars kkdddddddddkekek, PS)”, for which the target mRNA inhibition (1 µM) was determined as 15%.

“TATGUAATAGCCAGTA (sugars k3 d1 m1 d8 k3, PS)” returned a target mRNA inhibition (1 µM) of 43%.

Take GTTGAGATAAAGCTGC (sugars k3 d10 k3, PS): the target mRNA inhibition (1 µM) was determined as 54%.

With TATATGAGGTCTGTAT (sugars k3 d10 k3, PS), where the note is “1 µM”, the target mRNA inhibition stood at 42%.

For the sequence ACCAATGCAGTTTGTA (sugars k3 d10 k3, PS), the target mRNA inhibition is, setting by setting: (0.02 µM) 6%; (0.078 µM) 0%; (0.313 µM) 32%; (1 µM) 75%; (1.25 µM) 80%; (5 µM) 90%.

CTTGACAATGGTTGAT (sugars k3 d10 k3, PS) displayed a target mRNA inhibition (1 µM) of 54%.

On to AACCATAGGACATGGA (sugars k3 d10 k3, PS), for which the target mRNA inhibition (1 µM) was found to be 71%.

On to TTCAACTAAACATGAC (sugars k3 d10 k3, PS), for which the target mRNA inhibition (1 µM) came to 55%.

As for “TCCTGTGTTAGCTTTA (sugars k3 d9 k3 e1, PS)”, the target mRNA inhibition is, setting by setting: (0.02 µM) 0%; (0.078 µM) 0%; (0.313 µM) 34%; (1 µM) 75% and 50%; (1.25 µM) 50%; (5 µM) 81%.

Sequence TTTTTATTGGGCCCAA (sugars k3 d10 k3, PS) yielded a target mRNA inhibition (1 µM) of 51%.

In the case of GGCTACTTTCAAACCT (sugars k3 d10 k3, PS), the target mRNA inhibition (1 µM) is 54%.

As for TGTGTTCTTGTTGATA (sugars k3 d10 k3, PS), the target mRNA inhibition (1 µM) stood at 69%.

“GTAACGGTGATCAAAT (sugars kkdddddddddkekek, PS)” registered a target mRNA inhibition (1 µM) of 34%.

In the case of ACTCTAAATACCCTTG (sugars k3 d10 k3, PS), the target mRNA inhibition (1 µM) is 16%.

In the case of ATATGTCCAGGTTGAG (sugars k3 d10 k3, PS), the target mRNA inhibition (1 µM) was 61%.

With ATCCTTGGTGCTGAGA (sugars k3 d10 k3, PS), where the note is “1 µM”, the target mRNA inhibition was 13%.

As for “GCAAGCCAACAGAGAG (sugars kkdddddddddkekek, PS)”, the target mRNA inhibition (1 µM) was determined as 12%.

Consider TTGGAATGCTACTTGA (sugars k3 d10 k3, PS), for which the target mRNA inhibition reads like this: (0.02 µM) 20%; (0.078 µM) 33%; (0.313 µM) 47%; (1 µM) 72%; (1.25 µM) 80%; (5 µM) 83%.

Regarding CATTAATGCCACCCTA (sugars k3 d10 k3, PS), the target mRNA inhibition (1 µM) is 8%.

The sequence AATAAAGCTTTGCAGC (sugars k3 d10 k3, PS) gave a target mRNA inhibition (1 µM) of 26%.

On to CTTAAGATACCCAGGT (sugars k3 d10 k3, PS), for which the target mRNA inhibition (1 µM) is 36%.

For the sequence CATTATAAGCTAACTA (sugars k3 d10 k3, PS), the target mRNA inhibition (1 µM) is 39%.

Turning to TCAATTTATCATACCA (sugars k3 d10 k3, PS), the target mRNA inhibition (1 µM) came to 26%.

In the case of GATAGAGCACATGGCC (sugars k3 d10 k3, PS), the target mRNA inhibition (1 µM) was determined as 20%.

For “GCTGCTAGTGCCAAAC (sugars k3 d1 m1 d8 k3, PS)”, for the setting “1 µM”, the target mRNA inhibition was determined as 39%.

For CTGCCAGATTGCACAA (sugars k3 d10 k3, PS), the target mRNA inhibition (1 µM) came to 44%.

For TTCTCTTGGGTCCATT (sugars k3 d10 k3, PS), the target mRNA inhibition (1 µM) came out at 44%.

Turning to TGTCTAAACATCTCTG (sugars k3 d10 k3, PS), the target mRNA inhibition (1 µM) came to 58%.

Sequence TTTTAGGGAGGTAGCT (sugars k3 d10 k3, PS) yielded a target mRNA inhibition (1 µM) of 39%.

Sequence TCGGCTGGATATACTG (sugars k3 d10 k3, PS) yielded a target mRNA inhibition (1 µM) of 23%.

Consider “GTCGGTCACCTTTCAT (sugars k3 d1 m1 d8 k3, PS)”, for which, for the setting “1 µM”, the target mRNA inhibition turned out to be 66%.

In the case of AATAGCAAGCCAACAG (sugars k3 d10 k3, PS), the target mRNA inhibition (1 µM) stood at 9%.

In the case of CCTTAGAGTGAATCAT (sugars k3 d10 k3, PS), the target mRNA inhibition (1 µM) came to 65%.

For the sequence GTGGCCGCACACTGAA (sugars k3 d10 k3, PS), under “1 µM”, the target mRNA inhibition came out at 41%.

“CAGCATTGATTCGAAA (sugars k3 d9 k3 e1, PS)” came in with a target mRNA inhibition (1 µM) of 53%.

On to TTTAAAATAGAGTCGG (sugars k3 d10 k3, PS), for which the target mRNA inhibition is 0% (0.02 µM); 0% (0.078 µM); 1% (0.313 µM); 69% (1 µM); 48% (1.25 µM); 77% (5 µM).

Sequence ATCTTAAGATACCCAG (sugars k3 d10 k3, PS) came in with a target mRNA inhibition (1 µM) of 70%.

With AGTAATCAGTTTTCCT (sugars k3 d10 k3, PS), under “1 µM”, the target mRNA inhibition was found to be 65%.

TAGCAAGCCAACAGAG (sugars k3 d10 k3, PS) showed a target mRNA inhibition (1 µM) of 21%.

On to ACCACGATTGTTACAT (sugars k3 d10 k3, PS), for which, for the setting “1 µM”, the target mRNA inhibition came out at 34%.

In the case of TAGAGTCGGTCACCTT (sugars k3 d10 k3, PS), the target mRNA inhibition (1 µM) is 65%.

Turning to CATTCGGCTAGGCGCG (sugars k3 d10 k3, PS), under “1 µM”, the target mRNA inhibition is 46%.

As for ATTATGAGGATCTGGA (sugars k3 d10 k3, PS), where the note is “1 µM”, the target mRNA inhibition was found to be 49%.
